In brackets after ≈: the same amount, converted by molar mass. Activity calls are given as the source filed them. The calls are words filed in the database; no cut-off is given here.
What was measured:
Staphylococcus aureus [1] = test: Antibacterial activity against daptomycin-nonsusceptible Staphylococcus aureus isolate 701 bloodstream form isolated from patient with endocarditis assessed as inhibition on heterogeneous subpopulation survival rate at 0.5 and 4 ug/ml after 48 hrs; format: functional, organism-based
Staphylococcus aureus [2] = test: Induction of cell membrane depolarization in daptomycin-nonsusceptible Staphylococcus aureus isolate 701 bloodstream form isolated from patient with endocarditis at 0.75 ug/ml after 60 mins by flow cytometry; format: functional, organism-based
Staphylococcus aureus [3] = test: Induction of cell membrane depolarization in methicillin-susceptible Staphylococcus aureus isolate 616 bloodstream form isolated from patient with endocarditis at 6 ug/ml after 60 mins by flow cytometry; format: functional, organism-based
Staphylococcus aureus [4] = test: Reduction of membrane permeabilization in daptomycin-nonsusceptible Staphylococcus aureus isolate 701 bloodstream form isolated from patient with endocarditis assessed as calcein retention at 1.5 ug/ml after 120 mins by fluorometric analysis; format: functional, organism-based
Staphylococcus aureus [5] = test: microbe, parasite or virus in culture; conditions: 616
Description: Antibacterial activity against methicillin-susceptible Staphylococcus aureus isolate 616 bloodstream form isolated from patient with endocarditis by Etest

Staphylococcus aureus [6] = test: Induction of cell membrane depolarization in daptomycin-nonsusceptible Staphylococcus aureus isolate 703 bloodstream form isolated from patient with endocarditis at 40 ug/ml after 60 mins by flow cytometry; format: functional, organism-based
Staphylococcus aureus [7] = test: Induction of cell membrane depolarization in daptomycin-transitional Staphylococcus aureus isolate 629 bloodstream form isolated from patient with endocarditis at 6 ug/ml after 60 mins by flow cytometry; format: functional, organism-based
Staphylococcus aureus [8] = test: Antibacterial activity against Staphylococcus aureus SA113 harboring null mutation in mprF gene by Etset; format: functional
Staphylococcus aureus [9] = test: Antibacterial activity against Staphylococcus aureus SA113 by Etset; format: functional
Staphylococcus aureus [10] = test: Induction of cell membrane depolarization in daptomycin-nonsusceptible Staphylococcus aureus isolate 701 bloodstream form isolated from patient with endocarditis at 40 ug/ml after 60 mins by flow cytometry; format: functional, organism-based
Staphylococcus aureus [11] = test: Antibacterial activity against daptomycin-nonusceptible Staphylococcus aureus isolate 703 bloodstream form isolated from patient with endocarditis assessed as inhibition on heterogeneous subpopulation survival rate at 0.5 and 4 ug/ml after 48 hrs; format: functional, organism-based
Staphylococcus aureus [12] = test: Drug binding to methicillin-susceptible Staphylococcus aureus isolate 616 bloodstream form isolated from patient with endocarditis at 6 ug after 10 mins by radial diffusion assay; format: ADME, organism-based; conditions: in vivo
Staphylococcus aureus [13] = test: Induction of cell membrane depolarization in daptomycin-transitional Staphylococcus aureus isolate 629 bloodstream form isolated from patient with endocarditis at 40 ug/ml after 60 mins by flow cytometry; format: functional, organism-based
Staphylococcus aureus [14] = test: Drug binding to daptomycin-transitional Staphylococcus aureus isolate 629 bloodstream form isolated from patient with endocarditis at 6 ug after 10 mins by radial diffusion assay; format: ADME, organism-based
Staphylococcus aureus [15] = test: Antibacterial activity against daptomycin-transitional Staphylococcus aureus isolate 629 bloodstream form isolated from patient with endocarditis by Etest; format: functional
Staphylococcus aureus [16] = test: Reduction of membrane permeabilization in daptomycin-nonsusceptible Staphylococcus aureus isolate 703 bloodstream form isolated from patient with endocarditis assessed as calcein retention at 1.5 ug/ml after 120 mins by fluorometric analysis; format: functional, organism-based
Staphylococcus aureus [17] = test: Antibacterial activity against methicillin-susceptible Staphylococcus aureus isolate 616 bloodstream form isolated from patient with endocarditis assessed as inhibition on heterogeneous subpopulation survival rate at 0.5 and 1 ug/ml after 48 hrs; format: functional, organism-based
Staphylococcus aureus [18] = test: Induction of autolysis in daptomycin-nonsusceptible Staphylococcus aureus isolate 703 bloodstream form isolated from patient 6 ug/ml within 4 to 24 hrs; format: functional, organism-based
Staphylococcus aureus [19] = test: Induction of cell membrane depolarization in daptomycin-nonsusceptible Staphylococcus aureus isolate 701 bloodstream form isolated from patient with endocarditis at 6 ug/ml after 60 mins by flow cytometry; format: functional, organism-based
Staphylococcus aureus [20] = test: Induction of autolysis in methicillin-susceptible Staphylococcus aureus isolate 616 bloodstream form isolated from patient 6 ug/ml within 4 to 24 hrs; format: functional, organism-based
Staphylococcus aureus [21] = test: Drug binding to daptomycin-nonsusceptible Staphylococcus aureus isolate 701 bloodstream form isolated from patient with endocarditis at 6 ug after 10 mins by radial diffusion assay; format: ADME, organism-based
Staphylococcus aureus [22] = test: Induction of cell membrane depolarization in daptomycin-nonsusceptible Staphylococcus aureus isolate 703 bloodstream form isolated from patient with endocarditis at 0.75 ug/ml after 60 mins by flow cytometry; format: functional, organism-based
Staphylococcus aureus [23] = test: Induction of autolysis in daptomycin-nonsusceptible Staphylococcus aureus isolate 701 bloodstream form isolated from patient 6 ug/ml within 4 to 24 hrs; format: functional, organism-based
Staphylococcus aureus [24] = test: Induction of cell membrane depolarization in methicillin-susceptible Staphylococcus aureus isolate 616 bloodstream form isolated from patient with endocarditis at 40 ug/ml after 60 mins by flow cytometry; format: functional, organism-based
Staphylococcus aureus [25] = test: Drug binding to daptomycin-nonsusceptible Staphylococcus aureus isolate 703 bloodstream form isolated from patient with endocarditis at 6 ug after 10 mins by radial diffusion assay; format: ADME, organism-based
Staphylococcus aureus [26] = test: Induction of cell membrane depolarization in daptomycin-transitional Staphylococcus aureus isolate 629 bloodstream form isolated from patient with endocarditis at 0.75 ug/ml after 60 mins by flow cytometry; format: functional, organism-based
Staphylococcus aureus [27] = test: Antibacterial activity against daptomycin-nonsusceptible Staphylococcus aureus isolate 701 bloodstream form isolated from patient with endocarditis by Etest; format: functional
Staphylococcus aureus [28] = test: Reduction of membrane permeabilization in daptomycin-transitional Staphylococcus aureus isolate 629 bloodstream form isolated from patient with endocarditis assessed as calcein retention at 1.5 ug/ml after 120 mins by fluorometric analysis; format: functional, organism-based
Staphylococcus aureus [29] = test: Induction of cell membrane depolarization in methicillin-susceptible Staphylococcus aureus isolate 616 bloodstream form isolated from patient with endocarditis at 0.75 ug/ml after 60 mins by flow cytometry; format: functional, organism-based
Staphylococcus aureus [30] = test: Reduction of membrane permeabilization in methicillin-susceptible Staphylococcus aureus isolate 616 bloodstream form isolated from patient with endocarditis assessed as calcein retention at 1.5 ug/ml after 120 mins by fluorometric analysis; format: functional, organism-based
Staphylococcus aureus [31] = test: Antibacterial activity against daptomycin-transitional Staphylococcus aureus isolate 629 bloodstream form isolated from patient with endocarditis assessed as inhibition on heterogeneous subpopulation survival rate at 0.5 and 1 ug/ml after 48 hrs; format: functional, organism-based
Staphylococcus aureus [32] = test: Induction of cell membrane depolarization in daptomycin-nonsusceptible Staphylococcus aureus isolate 703 bloodstream form isolated from patient with endocarditis at 6 ug/ml after 60 mins by flow cytometry; format: functional, organism-based
Staphylococcus aureus [33] = test: Antibacterial activity against daptomycin-nonsusceptible Staphylococcus aureus isolate 703 bloodstream form isolated from patient with endocarditis by Etest; format: functional
Staphylococcus aureus [34] = test: Drug binding to daptomycin-transitional Staphylococcus aureus isolate 629 bloodstream form isolated from patient with endocarditis at 40 ug after 10 mins by radial diffusion assay; format: ADME, organism-based
Staphylococcus aureus [35] = test: Drug binding to daptomycin-nonsusceptible Staphylococcus aureus isolate 701 bloodstream form isolated from patient with endocarditis at 40 ug after 10 mins by radial diffusion assay; format: ADME, organism-based
Staphylococcus aureus [36] = test: Drug binding to methicillin-susceptible Staphylococcus aureus isolate 616 bloodstream form isolated from patient with endocarditis at 40 ug after 10 mins by radial diffusion assay; format: ADME, organism-based; conditions: in vivo
Staphylococcus aureus [37] = test: Drug binding to daptomycin-nonsusceptible Staphylococcus aureus isolate 703 bloodstream form isolated from patient with endocarditis at 40 ug after 10 mins by radial diffusion assay; format: ADME, organism-based

CCCCCCCCCC(=O)N[C@@H](Cc1c[nH]c2ccccc12)C(=O)N[C@H](CC(N)=O)C(=O)N[C@@H](CC(=O)O)C(=O)N[C@@H]1C(=O)NCC(=O)N[C@@H](CCCN)C(=O)N[C@@H](CC(=O)O)C(=O)N[C@H](C)C(=O)N[C@@H](CC(=O)O)C(=O)NCC(=O)N[C@H](CO)C(=O)N[C@@H]([C@H](C)CC(=O)O)C(=O)N[C@@H](CC(=O)c2ccccc2N)C(=O)O[C@@H]1C
Activity (Staphylococcus aureus [1]): inactive | Activity (Staphylococcus aureus [2]): inactive | Activity (Staphylococcus aureus [3]): Active | Activity (Staphylococcus aureus [4]): Active | MIC (Staphylococcus aureus [5]): 0.5 µg/mL (≈ 0.309 µM) | Activity (Staphylococcus aureus [6]): inactive | Activity (Staphylococcus aureus [7]): inactive | MIC (Staphylococcus aureus [8]): 0.094 µg/mL (≈ 0.058 µM) | MIC (Staphylococcus aureus [9]): 0.38 µg/mL (≈ 0.234 µM) | Activity (Staphylococcus aureus [10]): inactive | Activity (Staphylococcus aureus [11]): inactive | Drug uptake (Staphylococcus aureus [12]): 5.4 µg/mL | Activity (Staphylococcus aureus [13]): inactive | Drug uptake (Staphylococcus aureus [14]): 1.61 µg/mL | MIC (Staphylococcus aureus [15]): 0.75 µg/mL (≈ 0.463 µM) | Activity (Staphylococcus aureus [16]): Active | Activity (Staphylococcus aureus [17]): inactive | Activity (Staphylococcus aureus [18]): inactive | Activity (Staphylococcus aureus [19]): inactive | Activity (Staphylococcus aureus [20]): Active | Drug uptake (Staphylococcus aureus [21]): 2.32 µg/mL | Activity (Staphylococcus aureus [22]): inactive | Activity (Staphylococcus aureus [23]): inactive | Activity (Staphylococcus aureus [24]): inactive | Drug uptake (Staphylococcus aureus [25]): 2.24 µg/mL | Activity (Staphylococcus aureus [26]): inactive | MIC (Staphylococcus aureus [27]): 2 µg/mL (≈ 1.23 µM) | Activity (Staphylococcus aureus [28]): Active | Activity (Staphylococcus aureus [29]): Active | Activity (Staphylococcus aureus [30]): inactive | Activity (Staphylococcus aureus [31]): inactive | Activity (Staphylococcus aureus [32]): inactive | MIC (Staphylococcus aureus [33]): 2 µg/mL (≈ 1.23 µM)

H-ALYKKFKKKLLKSLKRLG-OH
Drug uptake (Staphylococcus aureus [34]): 11.7 µg/mL | Drug uptake (Staphylococcus aureus [35]): 11.7 µg/mL | Drug uptake (Staphylococcus aureus [36]): 12.4 µg/mL | Drug uptake (Staphylococcus aureus [37]): 8 µg/mL

— ChEMBL document CHEMBL1151454, “Failures in clinical treatment of Staphylococcus aureus Infection with daptomycin are associated with alterations in surface charge, membrane phospholipid asymmetry, and drug binding” (Antimicrob Agents Chemother, 2008)
